The values below come from patent US4230712A, “7-Methyl-8β-lower alkyl or 7-methyl-8-lower alkyl B/C cis or trans morphinan-6-one compounds and therapeutic method of treating pain employing them” (Miles Laboratories, Inc., priority 1978, dated 1980).

For one experiment, the system named is mice. The experiment is described as follows: acetic acid mouse writhing test (analgesic effect, s.c.). The format is in vivo, male CD-1 mice. The conditions noted are these: for ED50: sc, mouse acetic acid writhing, s.c., dose reducing the number of writhes by 50%, IA @ dose = inactive at that dose, read-out: ED50; for analgesic activity: in words. The method, then:
(A) Analgesic effects upon mice (acetic acid writhing test).
TEST A. ACETIC ACID MOUSE WRITHING TEST
The analgesic effects of test compounds were determined in mice by use of the acetic acid writhing test described by B. J. R. Whittle, Brit. J. Pharmacol., 22:246 (1964). In this test at least three groups of five male CD-1 mice (18-22 g) each were given subcutaneous doses of the test drug dissolved in either distilled water or distilled water acidified with HCl depending on the solubility of the compound. In all cases, 0.4 milliliter of a 0.5% V/V acetic acid in distilled water solution was administered intraperitoneally 15 minutes post drug. The number of writhes in a 20 min. interval beginning 5 minutes after the acetic acid injection were determined and compared with the number of writhes in control groups which had received only acetic acid.
Percent inhibition of writhing was calculated as: [formula]
The ED50 dose, i.e., the dose required to reduce the number of writhes by 50%, was determined graphically from a plot of % inhibition as a probit versus log dose. Confidence limits of 95% were calculated on the basis of those results falling in the range 16-84% inhibition. See Litchfield, J. T. and Wilcoxon, F., J. Pharmacol. Exp. Ther., 96, 99-113, (1949).
On the technique in general: In writhing tests, fewer writhes than in controls are read as antinociception.

In a further experiment the test system is rats. Briefly: narcotic antagonist activity, modified rat tail flick test against morphine. The format is in vivo, male albino Wistar rats. More on the design: AD50: unit not given here. The conditions noted are these: for AD50: rat tail flick, dose inhibiting the morphine (ED80 dose s.c.) effect by 50%, IA @ dose = inactive at that dose. On the procedure:
(B) Narcotic antagonist activity in rats (modified rat tail flick test).
TEST B. EVALUATION OF NARCOTIC ANTAGONIST ACTIVITY
The narcotic antagonist effects of test compounds were determined by a modification of the rat tail flick procedure of Harris and Pierson (J. Pharmacol. Exp. Ther. 143:141 [1964]).
Male albino Wistar rats (100-120 g) were used for this study. A rat's tail is so placed so as to cover a photocell. Heat is applied by a lamp in a reflector with a timer being connected to the lamp and photocell so that the timer goes on when the light is turned on and is turned off when the photocell is uncovered. A rheostat, incorporated into a heating lamp is used to adjust the intensity of the light falling on the tail of the rat such that the rat's control reaction time is from two to four seconds. Animals with a control reaction time outside this range are rejected. The rheostat adjustment is made only if a significant proportion (more than 2 out of every 10 rats) of the reaction times are outside the range of two to four seconds. Groups of five rats were used each time, and two control times were determined at 60 and 30 minutes prior to subcutaneous injection of the drug.
Thirty minutes after the last control run the test drug was given intraperitoneally. This was followed ten minutes later by an ED80 dose of morphine subcutaneously. The animals were retested at 20 minutes after the morphine injection. Control animals were given vehicle and morphine only. The data were calculated as follows: [formula]
The data were plotted on log-probit paper and AD50 values, i.e., the dose required to inhibit the morphine effect by 50% within 95% confidence limits, were determined by the method of Litchfield and Wilcoxon.
(Thermal pain tests record how soon the animal reacts.)

Experiment [1] is described as follows: charcoal meal test with attempted naloxone reversal. The format is in vivo.

In general, ED50 refers to the dose that gives a 50% effect, or the effect in half of the subjects. As to `C[C@H]1C[C@H]2[C@H]3Cc4ccc(O)cc4[C@@]2(CCN3CC2CC2)CC1=O.Cl` [TR-5177, 17-Cyclopropylmethyl-3-hydroxy-7α-methylmorphinan-6-one Hydrochloride], in the experiment with mice, the median effective dose (ED50) came out at 0.87 mg/kg. In the experiment with rats, the AD50 is 5.2. Also, the “action in charcoal meal test upon attempted naloxone reversal” value in experiment [1] (attempted reversal with naloxone, Hydrochloride) was “novel action in charcoal meal test upon attempted naloxone reversal”. Further, in experiment [1] (inferred from novel action upon attempted naloxone reversal), the “duration of action suggested by charcoal meal test” value was “may have a longer duration of action than would be expected”.
With `CCC[C@H]1CC(=O)C[C@]23CCN(CC4CCC4)[C@H](Cc4ccc(O)cc42)[C@H]13.Cl` [TR-5204, 17-Cyclobutylmethyl-3-hydroxy-8β-n-propylmorphinan-6-one Hydrochloride], the ED50 with mice is 0.43 mg/kg. Also, the “analgesic potency relative to TR-5223” value in the experiment with mice (vs TR-5223) is reported as “substantially more potent”. Further, in the experiment on rats (in words, conclusion from Tests A and B), the “analgesic (agonist)/narcotic antagonist activity profile” value is given as “mixed analgesic/narcotic antagonist”. The same compound showed an AD50 in the experiment with rats of 3.10. For the same compound, the “narcotic antagonist potency relative to TR-5223” value in the experiment with rats (vs TR-5223) is “substantially more potent”.
Turning to `O=C1CC[C@H]2[C@H]3Cc4ccc(O)cc4[C@@]2(CCN3CC2CC2)C1` [TR-5160, 17-Cyclopropylmethyl-3-hydroxy morphinan-6-one, reference compound], the ED50 in the experiment on mice was determined as 1.02 mg/kg. Further, the AD50 in the experiment with rats came out at 2.3.
On to `COc1ccc2c(c1)[C@]13CCN(CC4CCC4)[C@H](C2)[C@@H]1[C@@H](C)CC(=O)C3.Cl` [TR-5132, 17-Cyclobutylmethyl-3-methoxy-8β-methylmorphinan-6-one Hydrochloride], for which, in the experiment with mice, the analgesic activity result was “good activity” and the median effective dose (ED50) came out at 0.54 mg/kg. Also, the narcotic antagonist activity result with rats (in words) was “good activity”. Besides, the AD50 in the experiment with rats turned out to be 6.4.
On to `CC[C@H]1CC(=O)C[C@]23CCN(CC4CCC4)[C@H](Cc4ccc(O)cc42)[C@H]13.Cl` [TR-5200, 17-Cyclobutylmethyl-8β-ethyl-3-hydroxy-morphinan-6-one Hydrochloride], for which, in the experiment on mice, the analgesic activity entry is given as “potent activity” and the ED50 amounted to 0.21 mg/kg. In the experiment with rats (in words), the narcotic antagonist activity entry was “potent activity”. Further, the AD50 with rats is on record as 0.32.
